For assay [1], the system named is K. pneumonaie strain in clinical urine sample BIUR0084. The experiment in a line: Automated MultiPath AST cartridge on clinical urine sample. In kind it is cell-based. The note with it: clinical urine sample BIUR0084 (K. pneumoniae); 2 antibiotic concentrations; 4 h growth; fold growth value of 2.
A further assay deals with P. aeruginosa. The note with it: cited from earlier work.

Read-outs that look alike come from different tables or passages of the source.

As to `Cc1nnc(SCC2=C(C(=O)O)N3C(=O)[C@@H](NC(=O)Cn4cnnn4)[C@H]3SC2)s1` [Cefazolin], the “sensitive/resistant call by MulitPath” value in assay [1] is given as “resistant”.
In the case of Trimethoprim/Sulfamethoxazole, the “previously determined antibiotic resistance” value in the assay with P. aeruginosa (P. aeruginosa ATCC 27853), with P. aeruginosa (P. aeruginosa CDC0105), in the assay with P. aeruginosa (P. aeruginosa CDC0111), with P. aeruginosa (P. aeruginosa CDC0232), in the assay on P. aeruginosa (P. aeruginosa CDC0242) and in the assay on P. aeruginosa (P. aeruginosa CDC0247) was “Intrinsically” in each case. Further, the “previously determined antibiotic resistance” value in the assay with P. aeruginosa (P. aeruginosa CDC0251), in the assay with P. aeruginosa (P. aeruginosa CDC0253), in the assay on P. aeruginosa (P. aeruginosa CDC0259), in the assay on P. aeruginosa (P. aeruginosa CDC0261) and in the assay with P. aeruginosa (P. aeruginosa CDC0262) was “Intrinsically” throughout. The “sensitive/resistant call by MulitPath” value in assay [1] is “resistant”.

The values are drawn from patent US20210349082A1, “ANALYSIS INSTRUMENT” (First Light Diagnostics, Inc., priority 2018, published 2021).
